# Reference: patent US20230346797A1, “INHIBITORS OF THE PLASMODIAL SURFACE ANION CHANNEL AS ANTIMALARIALS” (The United States of America,as represented by the …, priority 2008, published 2023)
# Assays:
# P. falciparum [1] = experiment: In vitro parasite growth inhibition, SYBR Green I-based fluorescence assay for parasite nucleic acid; format: cell-based; conditions: Plasmodium falciparum, 72 h; 3 days culture; read-out: In vitro growth inhibitory IC50
# P. falciparum [2] = experiment: In vitro parasite growth inhibition by combinations of two PSAC antagonists (isobologram)
# Protocol: Parasite killing by identified PSAC antagonists was evaluated using a SYBR Green I-based fluorescence assay for parasite nucleic acid in 96-well format. […] Cultures were maintained for 3 days at 37° C. in 5% 02, 5% CO2. […] For each antagonist concentration, the mean of triplicate measurements was calculated after subtraction of background fluorescence from cultures killed by 20 μM chloroquine, a known antimalarial agent.
# The solid line represents the line of additive killing.
# [3] = in combination with compound 24 (Comp. A)
# [4] = in combination with compound 11 (Comp. A)
# [5] = in combination with compound 26 (Comp. A)
# [6] = in combination with compound 31 (Comp. A)
IC50 (P. falciparum [1]),SMILES,also measured
1.33 µM,Cc1ccc(C)c(N2CCN(C(=O)c3ccc4c(c3)NC(=O)c3ccccc3S4)CC2)c1 [Compound 5],–
3 µM,CCC(Cc1ccccc1)NC(=O)c1ccc2c(c1)NC(=O)c1ccccc1S2 (stereo not shown) [Compound 11],–
4.98 µM,COc1ccc(OCC(=O)Nc2ccc(-c3nn4c(C)nnc4s3)cc2)cc1 [Compound 16],parasite killing by combination (P. falciparum [2]; [3]): S; parasite killing by combination (P. falciparum [2]; in combination with compound 35 (Comp. A)): S
4 µM,COc1ccc2cc3cc(C(=O)N(C)C4CCCCC4)oc3nc2c1 [Compound 25],parasite killing by combination (P. falciparum [2]; [4]): S; parasite killing by combination (P. falciparum [2]; [3]): S; parasite killing by combination (P. falciparum [2]; [5]): S; parasite killing by combination (P. falciparum [2]; [6]): S
3.01 µM,O=C1Nc2cc(C(=O)N3CCC(Cc4ccccc4)CC3)ccc2Sc2ccccc21 [Compound 10],–
10 µM,O=C(Nc1ccc(-c2noc(-c3cccs3)n2)cc1)c1cccnc1 [Compound 21],parasite killing by combination (P. falciparum [2]; [3]): S
6.9 µM,O=C1Nc2cc(C(=O)N3CCC(N4CCCCC4)CC3)ccc2Sc2ccccc21 [Compound 9],–
36.7 µM,Cc1cc(-c2nn3c(C)nnc3s2)ccc1NC(=O)C(C)C [Compound 23],–
0.67 µM,O=C1Nc2cc(C(=O)N3CCN(c4ccccc4)CC3)ccc2Sc2ccccc21 [Compound 3],–
3 µM,COc1ccc(-c2nc3c(=O)[nH]c4ccccc4c3s2)cc1 [Compound 32],–
6.9 µM,CCCN(C(=O)c1cc2cc3ccc(C)cc3nc2o1)c1cccc(C)c1 [Compound 26],–
2.74 µM,Cc1nnc2sc(-c3ccc(NC(=O)c4ccc(Br)o4)cc3)nn12 [Compound 19],–
–,COc1cc(OC)nc(Sc2ccc(NC(=O)c3ccc(C(C)(C)C)cc3)cc2)n1 [Compound 36],parasite killing by combination (P. falciparum [2]; [3]): S
2.14 µM,CCCCOc1ccc(C(=O)Nc2ccc(-c3nn4c(C)nnc4s3)cc2)cc1 [Compound 18],"parasite killing by combination, isobologram (FIG. 3C) (P. falciparum [2]; in combination with compound 24 (component A antagonist), mixtures producing 50% parasite killing): synergistic parasite killing"
> 20 µM,COc1ccc(-c2nc3c(=O)n(C)c4ccccc4c3o2)cc1 [Compound 33],–
6 µM,O=C(COc1ccc2ccccc2c1)Nc1cccc(-c2nc3ncccc3o2)c1 [Compound 15],–
3.85 µM,CCOc1ccc(C(=O)Nc2ccc(-c3nn4c(C)nnc4s3)cc2)cc1 [Compound 13],parasite killing by combination (P. falciparum [2]; [4]): S; parasite killing by combination (P. falciparum [2]; [3]): S; parasite killing by combination (P. falciparum [2]; [5]): S; parasite killing by combination (P. falciparum [2]; [6]): S; parasite killing by combination (P. falciparum [2]; in combination with compound 32 (Comp. A)): S; parasite killing by combination (P. falciparum [2]; in combination with compound 33 (Comp. A)): S; parasite killing by combination (P. falciparum [2]; in combination with compound 34 (Comp. A)): S
21.5 µM,CCCCCC(=O)Nc1cc(-c2nn3c(C)nnc3s2)ccc1C [Compound 22],–
21.6 µM,Cc1cc(-c2nn3c(C)nnc3s2)ccc1NC(=O)c1ccco1 [Compound 20],–
39 µM,CCc1nnc2sc(-c3ccc(NC(=O)c4ccc(N5CCCC5)c([N+](=O)[O-])c4)cc3)nn12 [Compound 17],–
1 µM,Cc1cccc(N2CCN(C(=O)c3ccc4c(c3)NC(=O)c3ccccc3S4)CC2)c1C [Compound 2],–

SMILES,IC50 (P. falciparum [1]),also measured
CCCCCn1c(=O)c2nc(-c3ccc(OC)cc3)oc2c2ccccc21 [Compound 34],15 µM,–
